Test results reported in US9456589B2, “Elasmobranch-repelling compounds and methods of use” (priority 2005, dated 2016).
Where “and” joins values, the source holds several entries; their conditions need not be identical. Identical values can stand only once.

What was measured:
tiger sharks = experiment: Tonic immobility, Hd Syringe Assay; type: in vivo, G. cuvieri; settings: 1 ml
Protocol: (§1) One bioassay used to observe and measure flight response is the tonic immobility test. Tonic immobility is a state of paralysis that typically occurs when a shark is subject to inversion of its body along the longitudinal axis. This state is called “tonic,” and the shark can remain in this state for up to 15 minutes thereby allowing researchers to observe effects of chemical repellents. The “tonic” state of the shark is first established by releasing seawater in proximity to the “tonic” shark with the same delivery instrument and at the same distance as a “test” repellent compound will be released. Some controls are released with a high flow rate (30 mL/sec) in order to establish that sharks are not awakened by a jet of fluid over their noses. Once behavioral controls are established, a compound or composition that may have a repelling effect is delivered to the shark. If the compound or composition engenders a flight response, the shark will awaken from the tonic state and rapidly attempt to flee the delivered repellent. Using this tonic immobility bioassay researches can quantify the strength of a repellent effect.
Lemon, nurse, blacktip and tiger sharks were placed in tonic immobility by inverting the shark's body along its longitudinal axis. […]

[1] = system: sharks (lemon, nurse, blacknose, blacktip pooled); experiment: Tonic immobility, Syringe Assay, summary over species; type: in vivo
Procedure, shortened: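 Test chemical delivered as a bolus of 60 mL or more from one to five feet from the shark, distance set by water current strength. Time from delivery until response was recorded; it depends on bolus size, distance and current as the diffusing cloud reaches the shark.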

sharks (species pooled) = experiment: Tonic immobility, total of delivery methods not including Micropipette assays; type: in vivo
Protocol: as §1
Table 1, which summarizes the data in Tables 14 and 15, evidences the gustatory repellent characteristics of methylbutanals. In 35 of 36 assays (combining columns “Y” and “R” under the column labeled “Total (Not including Micropipette Assays)” to arrive at a 97% effectiveness rate), including assays on lemon, nurse, tiger and blacktip sharks, the gustatory repellent activity of 3-methylbutanal was established. In 81% of assays, tonic immobility was fully terminated. […] In only a single assay did a shark not respond to treatment with 3-methylbutanal.

[2] = species and delivery methods pooled

CC(C)CC=O [3-methylbutanal]
Response (time from delivery to response) (tiger sharks): 1 s
TTI (termination of tonic immobility) (tiger sharks): Y
Syringe Y (termination of tonic immobility), trials of trials [1]: 7/7
assays with termination of tonic immobility or behavior change (Y and R combined), not including Micropipette assays (sharks (species pooled); Hd Syringe, Syringe 3/5/10 and Bite, lemon, nurse, tiger, blacktip): 40 of 41 and 35 of 36
effectiveness rate (Y and R combined), not including Micropipette assays (sharks (species pooled); lemon, nurse, tiger, blacktip): 97%
Total (Not including Micropipette assays / Effective Delivery Methods) N, trials of trials (sharks (species pooled); [2]): single and 1/36
Total (Not including Micropipette assays / Effective Delivery Methods) R, trials of trials (sharks (species pooled); [2]): 6/36
Total (Not including Micropipette assays / Effective Delivery Methods) Y, trials of trials (sharks (species pooled); [2]): 29/36
Total N, percent of trials (sharks (species pooled); [2]): (3%)
